Experimental data from ChEMBL document CHEMBL4425185, “Efforts towards the optimization of a bi-aryl class of potent IRAK4 inhibitors” (Bioorg Med Chem Lett, 2016).
pIC50: −log10 of the molar value.

Tested on: Cytochrome P450
Assay: Induction of CYP450 (unknown origin)
Assay type: ADME
Conditions: human; call rule not given here

Compound	Activity
Cn1cc(NC(=O)c2cnn3ccc(N4CCNCC4)nc23)c(C(N)=O)n1	Not Active
Cn1cc(-c2cccc(C(=O)Nc3cn(C)nc3C(N)=O)n2)cn1	Not Active
Cn1cc(NC(=O)c2cccc(-c3ccnc(NCC4CC4)c3)n2)c(C(N)=O)n1	Not Active

Tested on: not listed separately
Assay: Clearance in rat at 0.15 mg/kg, iv
Assay type: ADME, organism-based
Conditions: in vivo

Compound	clearance
Cn1cc(NC(=O)c2cnn3ccc(N4CCNCC4)nc23)c(C(N)=O)n1	39 mL/min/kg
Cn1cc(-c2cccc(C(=O)Nc3cn(C)nc3C(N)=O)n2)cn1	53 mL/min/kg

Tested on: MDR1
Assay: Efflux ratio of permeability in dog MDCK2-MDR1 cells
Assay type: ADME, cell-based, Canis lupus familiaris
Conditions: MDCK-MDR1

Compound	efflux ratio
Cn1cc(NC(=O)c2cnn3ccc(N4CCNCC4)nc23)c(C(N)=O)n1	1
Cn1cc(-c2cccc(C(=O)Nc3cn(C)nc3C(N)=O)n2)cn1	0.5
Cn1cc(NC(=O)c2cccc(-c3ccnc(NCC4CC4)c3)n2)c(C(N)=O)n1	0.3

Species on record: Homo sapiens
Assay: Selectivity for human IRAK4 over human LRRK2
Conditions: not given

Compound	Selectivity ratio
Cn1cc(NC(=O)c2cnn3ccc(N4CCNCC4)nc23)c(C(N)=O)n1	< 10
Cn1cc(-c2cccc(C(=O)Nc3cn(C)nc3C(N)=O)n2)cn1	< 10
Cn1cc(NC(=O)c2cccc(-c3ccnc(NCC4CC4)c3)n2)c(C(N)=O)n1	< 10

Target: T1, Interleukin-1 receptor-associated kinase 4 (Homo sapiens) (UniProt Q9NWZ3)
T1 sequence (whole entry): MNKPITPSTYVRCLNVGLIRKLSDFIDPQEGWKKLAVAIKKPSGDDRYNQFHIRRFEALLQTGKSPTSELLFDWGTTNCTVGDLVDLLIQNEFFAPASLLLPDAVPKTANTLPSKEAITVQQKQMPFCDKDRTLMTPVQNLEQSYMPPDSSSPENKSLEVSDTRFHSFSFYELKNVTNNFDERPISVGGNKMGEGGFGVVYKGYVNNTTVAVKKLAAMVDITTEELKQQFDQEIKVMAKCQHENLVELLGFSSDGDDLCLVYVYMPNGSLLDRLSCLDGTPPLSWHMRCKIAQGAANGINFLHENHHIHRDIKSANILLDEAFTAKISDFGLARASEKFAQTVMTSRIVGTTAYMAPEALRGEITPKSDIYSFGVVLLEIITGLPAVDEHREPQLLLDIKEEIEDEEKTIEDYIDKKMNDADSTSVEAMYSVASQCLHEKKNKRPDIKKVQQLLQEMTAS
Assay: Ratio of IC50 for IRAK4 inhibition in human THP1-XBlue cells to IC50 for inhibition of human IRAK4
Assay type: cell-based
Conditions: not given

Compound	Ratio IC50
CN(C)[C@H]1CN(C(=O)c2nn(C)cc2NC(=O)c2cccc(-c3ccnc(NCC4CC4)c3)n2)C[C@@H]1O	< 3
Cn1cc(NC(=O)c2cccc(-c3ccnc(NCC(F)(F)F)c3)n2)c(C(N)=O)n1	< 3
Cn1cc(NC(=O)c2cccc(-c3ccnc(NCC4CC4)c3)n2)c(C(=O)N2CC(CN)C2)n1	< 3

The remaining lines, values ahead:

Ratio IC50	Compound
< 3	Cn1cc(NC(=O)c2cccc(-c3cncc(Cl)c3)n2)c(C(N)=O)n1
< 3	Cn1cc(NC(=O)c2cccc(-c3ccc(C4CC4)nc3)n2)c(C(N)=O)n1
< 3	Cn1cc(NC(=O)c2cnn3ccc(N4CCNCC4)nc23)c(C(N)=O)n1
< 3	Cn1cc(-c2cccc(C(=O)Nc3cn(C)nc3C(N)=O)n2)cn1
< 3	Cn1cc(NC(=O)c2cccc(-c3ccnc(NCC4CC4)c3)c2)c(C(N)=O)n1
< 3	Cn1cc(NC(=O)c2cccc(-c3ccnc(NCC4CC4)c3)n2)c(C(N)=O)n1
< 3	Cn1cc(NC(=O)c2cccc(-c3ccnc(N)c3)n2)c(C(N)=O)n1

Tested on: not listed separately
Assay: Clearance in rat
Assay type: ADME
Conditions: in vivo

Compound	clearance
CN(C)[C@H]1CN(C(=O)c2nn(C)cc2NC(=O)c2cccc(-c3ccnc(NCC4CC4)c3)n2)C[C@@H]1O	37 mL/min/kg
Cn1cc(NC(=O)c2cccc(-c3ccnc(NCC4CC4)c3)n2)c(C(=O)N2CC(CN)C2)n1	6 mL/min/kg
CN1CCCC(CNC(=O)c2nn(C)cc2NC(=O)c2cccc(-c3ccnc(NCC4CC4)c3)n2)C1 (stereo not given)	21 mL/min/kg

Now from value to molecule:

clearance	Compound
30 mL/min/kg	Cn1cc(NC(=O)c2cccc(-c3ccc(C4CC4)nc3)n2)c(C(N)=O)n1
3 mL/min/kg	Cn1cc(NC(=O)c2cnn3ccc(N4CCNCC4)nc23)c(C(N)=O)n1
53 mL/min/kg	Cn1cc(NC(=O)c2cncc(-c3ccnc(NCC4CC4)c3)c2)c(C(N)=O)n1
54 mL/min/kg	Cn1cc(NC(=O)c2cccc(-c3cccnc3)n2)c(C(N)=O)n1
53 mL/min/kg	Cn1cc(-c2cccc(C(=O)Nc3cn(C)nc3C(N)=O)n2)cn1
25 mL/min/kg	Cn1cc(NC(=O)c2cccc(-c3ccnc(NCC4CC4)c3)c2)c(C(N)=O)n1
17 mL/min/kg	Cn1cc(NC(=O)c2cccc(-c3ccnc(NCC4CC4)c3)n2)c(C(N)=O)n1
24 mL/min/kg	Cn1cc(NC(=O)c2cccc(-c3ccnc(N)c3)n2)c(C(N)=O)n1
43 mL/min/kg	Cn1cc(NC(=O)c2ccnc(-c3ccnc(NCC4CC4)c3)n2)c(C(N)=O)n1

Species on record: Homo sapiens
Assay: Selectivity for human IRAK4 over GST-tagged human MINK1
Conditions: not given

Compound	Selectivity ratio
Cn1cc(NC(=O)c2cnn3ccc(N4CCNCC4)nc23)c(C(N)=O)n1	< 10
Cn1cc(-c2cccc(C(=O)Nc3cn(C)nc3C(N)=O)n2)cn1	< 10
Cn1cc(NC(=O)c2cccc(-c3ccnc(NCC4CC4)c3)n2)c(C(N)=O)n1	< 10

Target: T2, Interleukin-1 receptor-associated kinase 4 (Homo sapiens, UniProt Q9NWZ3)
T2 sequence (Q9NWZ3 whole entry): T1 sequence (whole entry)
Assay: Inhibition of […] IRAK4 in human THP1-XBlue cells assessed as decrease in NF-kappaB level preincubated for 1 hr followed by stimulation with LPS for 4 to 5 hrs measured after 30 mins by spectrophotometric analysis
Assay type: cell-based
Conditions: not given

Compound	pIC50
CN(C)[C@H]1CN(C(=O)c2nn(C)cc2NC(=O)c2cccc(-c3ccnc(NCC4CC4)c3)n2)C[C@@H]1O	6.27
Cn1cc(NC(=O)c2cccc(-c3ccnc(NCC(F)(F)F)c3)n2)c(C(N)=O)n1	6.53
Cn1cc(NC(=O)c2cccc(-c3ccnc(NCC4CC4)c3)n2)c(C(=O)N2CC(CN)C2)n1	6.32

Second part, the molecule after the results:

pIC50	Compound
6.69	Cn1cc(NC(=O)c2cccc(-c3cncc(Cl)c3)n2)c(C(N)=O)n1
6.51	Cn1cc(NC(=O)c2cccc(-c3ccc(C4CC4)nc3)n2)c(C(N)=O)n1
6.82	Cn1cc(NC(=O)c2cnn3ccc(N4CCNCC4)nc23)c(C(N)=O)n1
6.86	Cn1cc(-c2cccc(C(=O)Nc3cn(C)nc3C(N)=O)n2)cn1
6.37	Cn1cc(NC(=O)c2cccc(-c3ccnc(NCC4CC4)c3)c2)c(C(N)=O)n1
6.77	Cn1cc(NC(=O)c2cccc(-c3ccnc(NCC4CC4)c3)n2)c(C(N)=O)n1
6.59	Cn1cc(NC(=O)c2cccc(-c3ccnc(N)c3)n2)c(C(N)=O)n1

Tested on: not listed separately
Assay: Apparent permeability in dog MDCK2-MDR1 cells
Assay type: ADME, cell-based, Canis lupus familiaris
Conditions: MDCK-MDR1

Compound	Papp
CN(C)[C@H]1CN(C(=O)c2nn(C)cc2NC(=O)c2cccc(-c3ccnc(NCC4CC4)c3)n2)C[C@@H]1O	11 ×10⁻⁶ cm/s
Cn1cc(NC(=O)c2cnn3ccc(N4CCNCC4)nc23)c(C(N)=O)n1	1.6 ×10⁻⁶ cm/s
Cn1cc(-c2cccc(C(=O)Nc3cn(C)nc3C(N)=O)n2)cn1	29 ×10⁻⁶ cm/s
Cn1cc(NC(=O)c2cccc(-c3ccnc(NCC4CC4)c3)n2)c(C(N)=O)n1	18 ×10⁻⁶ cm/s
Cn1cc(NC(=O)c2cccc(-c3ccnc(N)c3)n2)c(C(N)=O)n1	23 ×10⁻⁶ cm/s

Tested on: Cytochrome P450
Assay: Inhibition of CYP450 (unknown origin)
Assay type: ADME, protein assay
Conditions: human

Compound	inhibition (INH)
Cn1cc(NC(=O)c2cnn3ccc(N4CCNCC4)nc23)c(C(N)=O)n1	Not Active
Cn1cc(-c2cccc(C(=O)Nc3cn(C)nc3C(N)=O)n2)cn1	Not Active
Cn1cc(NC(=O)c2cccc(-c3ccnc(NCC4CC4)c3)n2)c(C(N)=O)n1	Not Active

Target: Voltage-gated inwardly rectifying potassium channel KCNH2 (Homo sapiens, UniProt Q12809)
Sequence (Q12809 whole entry): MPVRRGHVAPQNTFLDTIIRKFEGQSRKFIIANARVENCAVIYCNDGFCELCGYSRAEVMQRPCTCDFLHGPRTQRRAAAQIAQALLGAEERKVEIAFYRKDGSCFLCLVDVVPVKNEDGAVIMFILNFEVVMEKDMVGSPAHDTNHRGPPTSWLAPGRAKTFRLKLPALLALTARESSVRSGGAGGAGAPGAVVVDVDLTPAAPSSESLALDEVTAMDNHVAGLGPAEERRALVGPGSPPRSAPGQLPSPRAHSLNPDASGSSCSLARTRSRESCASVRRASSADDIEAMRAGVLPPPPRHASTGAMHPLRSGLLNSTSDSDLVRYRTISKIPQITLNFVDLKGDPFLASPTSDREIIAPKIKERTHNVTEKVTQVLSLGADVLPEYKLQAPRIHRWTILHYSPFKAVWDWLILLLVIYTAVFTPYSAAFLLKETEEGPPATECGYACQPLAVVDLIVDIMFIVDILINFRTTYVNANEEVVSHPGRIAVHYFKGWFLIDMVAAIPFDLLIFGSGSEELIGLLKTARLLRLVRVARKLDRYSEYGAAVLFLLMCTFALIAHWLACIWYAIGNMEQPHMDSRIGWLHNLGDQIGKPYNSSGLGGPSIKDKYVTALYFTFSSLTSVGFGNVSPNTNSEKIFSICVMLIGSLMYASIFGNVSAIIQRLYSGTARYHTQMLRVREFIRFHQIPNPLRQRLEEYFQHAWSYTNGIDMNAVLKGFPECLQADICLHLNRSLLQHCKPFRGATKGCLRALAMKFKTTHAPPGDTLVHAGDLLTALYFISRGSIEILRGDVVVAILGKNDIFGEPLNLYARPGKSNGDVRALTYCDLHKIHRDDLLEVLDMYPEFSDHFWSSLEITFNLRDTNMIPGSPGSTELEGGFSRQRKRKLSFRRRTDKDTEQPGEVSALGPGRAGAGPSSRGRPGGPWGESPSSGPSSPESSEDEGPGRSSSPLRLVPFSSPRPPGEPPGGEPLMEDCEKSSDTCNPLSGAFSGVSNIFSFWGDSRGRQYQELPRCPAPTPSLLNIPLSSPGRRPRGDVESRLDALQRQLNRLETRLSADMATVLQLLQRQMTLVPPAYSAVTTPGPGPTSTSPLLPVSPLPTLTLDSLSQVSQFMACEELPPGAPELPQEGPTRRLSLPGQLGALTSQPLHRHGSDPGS
Assay: Inhibition of MK499 binding to human ERG
Conditions: not given

Compound	pIC50
CN(C)[C@H]1CN(C(=O)c2nn(C)cc2NC(=O)c2cccc(-c3ccnc(NCC4CC4)c3)n2)C[C@@H]1O	< 4.22
Cn1cc(NC(=O)c2cccc(-c3ccc(C4CC4)nc3)n2)c(C(N)=O)n1	< 4.22
Cn1cc(NC(=O)c2cnn3ccc(N4CCNCC4)nc23)c(C(N)=O)n1	< 4.22
Cn1cc(NC(=O)c2cncc(-c3ccnc(NCC4CC4)c3)c2)c(C(N)=O)n1	5.28
Cn1cc(NC(=O)c2cccc(-c3ccnc(NCC4CC4)c3)n2)c(C(=O)N2CC(CN)C2)n1	4.40
CN1CCCC(CNC(=O)c2nn(C)cc2NC(=O)c2cccc(-c3ccnc(NCC4CC4)c3)n2)C1 (stereo not given)	4.92
Cn1cc(-c2cccc(C(=O)Nc3cn(C)nc3C(N)=O)n2)cn1	< 4.22
Cn1cc(NC(=O)c2cccc(-c3ccnc(NCC4CC4)c3)c2)c(C(N)=O)n1	5.21
Cn1cc(NC(=O)c2cccc(-c3ccnc(NCC4CC4)c3)n2)c(C(N)=O)n1	5.54
Cn1cc(NC(=O)c2cccc(-c3ccnc(N)c3)n2)c(C(N)=O)n1	4.60
Cn1cc(NC(=O)c2ccnc(-c3ccnc(NCC4CC4)c3)n2)c(C(N)=O)n1	5.72

Tested on: not listed separately
Assay: Clearance in rat at 2 mg/kg, iv
Assay type: ADME, organism-based
Conditions: in vivo

Compound	clearance
Cn1cc(NC(=O)c2cccc(-c3ccnc(NCC4CC4)c3)n2)c(C(N)=O)n1	33 mL/min/kg
Cn1cc(NC(=O)c2cccc(-c3ccnc(N)c3)n2)c(C(N)=O)n1	69 mL/min/kg

Tested on: not listed separately
Assay: Clearance in rat at 1.45 mg/kg, iv
Assay type: ADME, organism-based
Conditions: in vivo

Compound	clearance
Cn1cc(NC(=O)c2cncc(-c3ccnc(NCC4CC4)c3)c2)c(C(N)=O)n1	31 mL/min/kg
Cn1cc(NC(=O)c2cccc(-c3ccnc(NCC4CC4)c3)c2)c(C(N)=O)n1	32 mL/min/kg

Target: T2, Interleukin-1 receptor-associated kinase 4
Assay: Inhibition of human recombinant N-terminal GST-tagged full-length IRAK4 expressed in baculovirus infected Sf9 insect cells using 5FAM-RKRQGSVRRRVH-COOH as substrate in presence of ATP by IMAP fluorescence polarization assay
Conditions: not given

Compound	pIC50
CN(C)CCCNC(=O)c1nn(C)cc1NC(=O)c1cccc(-c2ccnc(NCC3CC3)c2)n1	6.27
Cn1cc(NC(=O)c2cccc(-c3ccnc(NCC4CC4)c3)n2)c(C(=O)NC2CCCC2)n1	< 5.30
Cn1cc(NC(=O)c2cccc(-c3ccnc(NCC4CC4)c3)n2)c(C(=O)N2CCC(O)C2)n1 (stereo not given)	< 5.30
Cn1cc(NC(=O)c2cccc(-c3ccnc(NCC4CC4)c3)n2)c(C(=O)NCc2ccncc2)n1	< 5.30
Cn1cc(NC(=O)c2cccc(-c3ccnc(NCC4CC4)c3)n2)c(C(=O)NCc2ncc[nH]2)n1	5.79
Cn1cc(NC(=O)c2cccc(-c3ccnc(NCC4CC4)c3)n2)c(C(=O)NCc2ccccc2)n1	< 5.30
CC(C)CNC(=O)c1nn(C)cc1NC(=O)c1cccc(-c2ccnc(NCC3CC3)c2)n1	< 5.30

Next, values leading:

pIC50	Compound
6.97	Cn1cc(NC(=O)c2cccc(-c3cncc(Cl)c3)n2)c(C(N)=O)n1
6.92	Cn1cc(NC(=O)c2cccc(-c3ccc(C4CC4)nc3)n2)c(C(N)=O)n1
6.40	Cn1cc(NC(=O)c2cccc(-c3ccsc3)n2)c(C(N)=O)n1
6.17	Cn1cc(NC(=O)c2cccc(-c3cnccc3Cl)n2)c(C(N)=O)n1
7.42	Cn1cc(NC(=O)c2cnn3ccc(N4CCNCC4)nc23)c(C(N)=O)n1
< 5.30	Cn1cc(NC(=O)c2cc(-c3ccnc(NCC4CC4)c3)ccn2)c(C(N)=O)n1
7.44	Cn1cc(-c2cccc(C(=O)Nc3cn(C)nc3C(N)=O)n2)cn1
6.73	Cn1cc(NC(=O)c2cccc(-c3ccnc(NCC4CC4)c3)c2)c(C(N)=O)n1
5.44	Cn1cc(NC(=O)c2cccc(-c3ccccc3)n2)c(C(N)=O)n1
